# Legend:
# CNPase [1] = assay: Spinal cord CNPase by Western blot, EAE mice; type: in vivo; details: positive control drug, dose not given
# Method: (§1) Preparation of mice model and administration: experimental autoimmune encephalomyelitis (EAE) mice model is an important tool for studying various human demyelinating diseases of nervous system. In the present experiment, the preparation of EAE mice model was performed by immunizing female C57BL/6J mice with myelin sheath oligodendroglial cell surface glycoprotein MOG35-55. That is, the mice were subcutaneously injected at dorsal part of spinal column with 0.2 mL of MOG35-55 antigen elixir, and 0.2 ml of bordetella pertussis solution was intraperitoneally injected at the time of immunization injection and 48 h thereafter, respectively. Icariin was intragastrically administered after the last injection of bordetella pertussis solution, for consecutive 3 weeks.
# Experimental objective: myelin sheath is formed with prominences of oligodendroglial cells. CNPase, myelin basic protein (MBP) are marker proteins of mature oligodendroglial cells. The present experiment was to observe the expression of CNPase and MBP to represent the content of oligodendroglial cells in spinal cord of EAE model mice by Western blot method; and to study the effects of icariin on it.
# Experimental method: the mice were anesthetized and sacrificed, fresh spinal cord was taken on ice, total protein was extracted by cleavage on ice, to prepare Western blot sample, added separately with CNPase, MBP primary antibodies and incubated, added with corresponding secondary antibodies, ECL colorated, Kodak film exposed. Pictures were analyzed with Image J software and standardized with β-actin.
# [2] = tested on: experimental autoimmune encephalomyelitis (EAE) rat model; assay: Nervous function damage score in EAE rat model; type: in vivo, Lewis rats; details: EAE rats, peak of attack; positive control drug, dose not given; scale 0-6
# Method: (§2) Preparation of rat model and administration: experimental autoimmune encephalomyelitis (EAE) model is an important tool for studying various human demyelinating diseases of nervous system. In the example, the preparation of EAE rat model was performed by multipoint immunizing female Lewis rats subcutaneously at tail root with a homogenate of spinal cord and cerebral gray matter of Guinea pig as well as complete Freund's adjuvant after emulsification. They were intragastrically administered with Epimedium flavanoids for 3 weeks.
# Nervous function test method: the ethological changes of rats were observed by two experimenters using blind method every day. Nervous function damage scoring standard: 0 score, absence of symptom; 1 score, decrease of tail tension, visible evident slight gait awkward; 2 score, double hind limbs weak, walk difficult; 3 score, double hind limbs paralysis; 4 score, double hind limbs paralysis and fore limbs weak; 5 score, four limbs paralysis; 6 score, near death or died.
# [3] = tested on: Superoxide dismutase (SOD); assay: SOD activity of cerebral cortex, biochemical kit, EAE rats; type: in vivo; details: positive control drug, dose not given
# Method: as §2
# Experimental objective: the lipid peroxidation between oxygen free radicals and unsaturated fatty acids of cell membranes and organelle membranes results in the damage, degradation, denaturation and dysfunction of membrane phospholipids. Malondialdehyde (MDA) is a metabolic product of lipid peroxidation, and the increase of MDA indicates the enhancement of lipid peroxidation, which may lead to damage of nerve cells and myelin sheath. Superoxide dismutase (SOD) can scavenge superoxide anions and is an important antioxidase in vivo. In this experiment, SOD activity and MDA content of brain tissues in EAE rat model were measured by biochemistry method, and the effects of Epimedium flavanoids on changes thereof were observed. […]
# [4] = tested on: inflammatory cell infiltration in spinal cord tissues of EAE mice model; assay: Inflammatory cell infiltration in spinal cord, HE staining, EAE mice; type: in vivo; details: positive control drug, dose not given, scale 0-4
# Method: as §1
# Experimental objective: the pathological changes of spinal cord in EAE model, especially inflammatory cell infiltration situations was assayed by hematoxylin-eosin (HE) staining test, and the intervention effects of […] on these pathological changes were observed.
# Experimental method: the mice were anesthetized with 10% chloral hydrate on the 28th day of experiment, fixed by perfusion of 4% paraformaldehyde, spinal cord tissues were taken for making paraffin sections, section thickness […]. Stained with HE, observed under microscope, and scored according to the following standard: 0 score, absence of cell infiltration; 1 score, spinal meninge cell infiltration; 2 score, 1 to 4 small ranges of cell infiltration around vessels; 3 score, 5 or more small ranges of cell infiltration around vessels, or one or more accumulatively substantial large range of cell infiltration; 4 score, a large number of cell infiltration ranges accumulatively existing in 20% or more of white matter regions.
# [5] = tested on: myeloid tissue myelinoclasis in EAE mice model; assay: Myelinoclasis of myeloid tissue, LFB staining, EAE mice; type: in vivo; details: positive control drug, dose not given, scale 0-4
# Method: as §1
# Experimental objective: the myelinoclasis of myeloid tissue of EAE model mice were assayed by Luxol Fast Blue (LFB) staining, and the intervention effects of icariin on this pathological change were studied.
# Experimental method: the mice were anesthetized with 10% chloral hydrate on the 29th day of experiment, fixed by perfusion of 4% paraformaldehyde, myeloid tissues were taken for making paraffin sections, section thickness […]. Stained with LFB, observed under microscope, and scored according to the following standard: 0 score, absence of myelinoclasis; 1 score, one small range of myelinoclasis; 2 score, 2 or 3 small ranges of myelinoclasis; 3 score, 1 to 2 large ranges of myelinoclasis; 4 score, large ranges of myelinoclasis accumulatively existing in 20% or more of white matter regions.
# CNPase [6] = assay: CNPase positive cells of spinal cord lumbar intumescentia by immunohistochemical method, EAE rats; type: in vivo; details: positive control drug, dose not given
# Method: as §2
# Experimental objective: myelin sheath is formed with prominences of oligodendroglial cells. 2′3′-cyclic […]-3′-phosphodiesterase (CNPase) is a marker protein of mature oligodendroglial cells. In this experiment, CNPase content of cerebral cortex in EAE rat model was measured by Western blot method, CNPase content of spinal cord lumbar intumescentia was measured by immunohistochemical method; and the effects of Epimedium flavanoids on these contents were observed.
# Experimental method: the rats were anesthetized with 10% chloral hydrate on the 14th day of experiment, fixed by perfusion of 4% paraformaldehyde, spinal cord tissues were taken for frozen section. […] Pictures were analyzed using Image Pro plus5.0 software to count positive cells.
compound,measurement,setting,value
CC(=O)OCC(=O)[C@@]1(O)CC[C@H]2[C@@H]3CCC4=CC(=O)C=C[C@]4(C)[C@H]3C(=O)C[C@@]21C [prednisone acetate],CNPase/actin Integration grey level,CNPase [1],1.20 ± 0.01
same,Nervous function damage score,[2],0.83 ± 0.48
same,SOD activity,[3],134.5 ± 5.1 U/mg protein
same,Inflammatory cell infiltration (HE staining score),[4],1.05 ± 0.13
same,Myelinoclasis (LFB staining score),[5],0.77 ± 0.22
same,CNPase positive cell count,CNPase [6],1378.2 ± 125.4

# From patent US9050353B2, “Use of icariin and epimedium flavonoids containing icariin to treat diseases associated with myelin sheath lesion” (Xuanwu Hospital of Capital Medical University, priority 2010, dated 2015)
